Assay results published in paper PMC7849180 (Frontiers in Pharmacology, 2020).
Where a name gives a salt, the structure may show the parent alone. Read-outs that look alike come from different tables or passages of the source.

What was measured:
myelofibrosis [1] = tested on: myelofibrosis; set-up: method as in RA Abdelrahman et. al.; conditions: ref RA Abdelrahman et. al., cited from earlier work; for CR / Clinical Improvement (CI) / PR: 2013 IWG-MRT criteria; for patients with symptom improvement: 2013 IWG-MRT-ELN criteria
myelofibrosis [2] = conditions: ref Momelotinib extension study; cited from earlier work
myelofibrosis [3] = conditions: cited from earlier work
myelofibrosis [4] = tested on: myelofibrosis; set-up: method as in COMFORT-II; conditions: Week 48, ref COMFORT-II; cited from earlier work
myelofibrosis [5] = tested on: myelofibrosis; set-up: method as in Ruxolitinib Phase I/II trials; conditions: within 3 months, 153 MF patients, ref Ruxolitinib Phase I/II trials; cited from earlier work
myelofibrosis [6] = tested on: myelofibrosis; set-up: method as in COMFORT-I; conditions: ref COMFORT-I; cited from earlier work
polycythemia vera = conditions: cited from earlier work
CYP2D6 = target: T1, CYP2D6 (Homo sapiens, UniProt P10635); format: in vitro ADME; conditions: microsomes
T1 construct: using mixed human liver microsomes and human primary hepatocytes as the in vitro; from tissue; host or cells: mixed (pooled) human liver microsomes

CYP1A2 = target: T2, CYP1A2 (Homo sapiens, UniProt P05177); format: in vitro ADME; conditions: microsomes
T2 construct: using mixed human liver microsomes and human primary hepatocytes as the in vitro; from tissue; host or cells: mixed (pooled) human liver microsomes

CYP2C9 = target: T3, CYP2C9 (Homo sapiens, UniProt P11712); format: in vitro ADME; conditions: microsomes
T3 construct: using mixed human liver microsomes and human primary hepatocytes as the in vitro; from tissue; host or cells: mixed (pooled) human liver microsomes

[7] = tested on: primary cells harboring the JAK2V617F mutation in patients with polycythemia vera; assay: Colony forming of erythroid hematopoietic cells of polycythemia vera patients; format: cell-based, human; conditions: 9 patients
Text: (§1) Suzhou Zelgen Biopharmaceuticals Co., Ltd. Jaktinib Hydrochloride Tablets Chemical Drug Class 1 New Drug and ZG0178. However, the inhibitory effect on the activity of Ba/F3-EpoR cell line […]
(§2) respectively. Obviously, this selective inhibition is associated with the aberrant expression of JAK2 in Ba/F3-EpoR-JAK2V617F mutant cells, and the degree of ZG0163 inhibition on JAK-STAT signaling pathway in this cell line. […]
(§3) cells, and the effects of ZG0163 was similar to those of positive control compounds, […]
(§4) In Vitro Inhibitory Effect of ZG0128 on Cell Lines Transfected with Oncogenes and Primary Blood Cells in Patients with Polycythemia Vera
(§5) In vitro cell culture assay was used to determine whether compound ZG0128 […]
(§6) cell line harboring a JAK2V617F mutation, and 8 HCD-57 cell lines stably transfected with oncogenic mutations JAK2V617F, MPLW515L, KITD816V, NPM-ALK, FLT3-ITD, FLT3D835H, FLT3D835Y and KRasG12V, respectively. In addition, study the inhibitory effects of compound ZG0128 on the growth of hematopoietic progenitor cells in patients with polycythemia vera.
(§7) 9 cell lines were similar to those of positive control drug ZG0192. At the sub-micromolar concentration, both compounds ZG0128 and ZG0192 were able to […]
(§8) the growth of HCD-57 cells transfected with oncogenic mutations JAK2V617F, […]
(§9) spectrum inhibitory effect on tyrosine kinases. […]

CYP2C19 = target: T4, CYP2C19 (Homo sapiens, UniProt P33261); format: in vitro ADME; conditions: microsomes
T4 construct: using mixed human liver microsomes and human primary hepatocytes as the in vitro; from tissue; host or cells: mixed (pooled) human liver microsomes

CYP3A4 = target: T5, CYP3A4 (Homo sapiens, UniProt P08684); assay: CYP inhibition, mixed human liver microsomes; format: in vitro ADME
T5 construct: using mixed human liver microsomes and human primary hepatocytes as the in vitro; from tissue; host or cells: mixed (pooled) human liver microsomes

CYP2C8 = target: T6, CYP2C8 (Homo sapiens, UniProt P10632); format: in vitro ADME; conditions: microsomes
T6 construct: using mixed human liver microsomes and human primary hepatocytes as the in vitro; from tissue; host or cells: mixed (pooled) human liver microsomes

CYP2B6 = target: T7, CYP2B6 (Homo sapiens, UniProt P20813); format: in vitro ADME; conditions: microsomes
T7 construct: using mixed human liver microsomes and human primary hepatocytes as the in vitro; from tissue; host or cells: mixed (pooled) human liver microsomes

[8] = tested on: J53Z1 cells harboring the JAK2V617F mutation and HCD-57 cells transfected with oncogenic mutations; assay: Growth of cell lines transfected with oncogenes; format: cell-based
Text: as §1, §2, §3, §4, §5, §6, §7, §8, §9

[9] = 150 mg bid, ref Momelotinib Phase I/II
[10] = 150 mg qd, ref Momelotinib Phase I/II
[11] = 300 mg qd, ref Momelotinib Phase I/II
[12] = Grade 1, ref Momelotinib Phase I/II
[13] = Grade 2, ref Momelotinib Phase I/II
[14] = Grade 3, ref Momelotinib Phase I/II
[15] = Grade 4, ref Momelotinib Phase I/II
[16] = Total (n=166), ref Momelotinib Phase I/II
[17] = all cases (n=166), ref Momelotinib Phase I/II

T5 sequence (P08684 whole entry): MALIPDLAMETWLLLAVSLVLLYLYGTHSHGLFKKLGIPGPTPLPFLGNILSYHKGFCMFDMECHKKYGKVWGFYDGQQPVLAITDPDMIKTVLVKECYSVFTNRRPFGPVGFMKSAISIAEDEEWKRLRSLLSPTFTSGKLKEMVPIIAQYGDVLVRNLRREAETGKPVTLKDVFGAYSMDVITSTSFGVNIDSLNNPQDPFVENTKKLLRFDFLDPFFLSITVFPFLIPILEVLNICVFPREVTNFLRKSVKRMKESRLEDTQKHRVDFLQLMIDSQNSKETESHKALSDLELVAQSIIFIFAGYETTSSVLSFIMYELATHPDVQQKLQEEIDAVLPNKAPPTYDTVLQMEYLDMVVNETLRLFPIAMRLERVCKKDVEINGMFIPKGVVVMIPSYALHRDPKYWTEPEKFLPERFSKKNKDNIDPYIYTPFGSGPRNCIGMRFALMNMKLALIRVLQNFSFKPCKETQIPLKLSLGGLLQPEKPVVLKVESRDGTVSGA
T2 sequence (P05177 whole entry): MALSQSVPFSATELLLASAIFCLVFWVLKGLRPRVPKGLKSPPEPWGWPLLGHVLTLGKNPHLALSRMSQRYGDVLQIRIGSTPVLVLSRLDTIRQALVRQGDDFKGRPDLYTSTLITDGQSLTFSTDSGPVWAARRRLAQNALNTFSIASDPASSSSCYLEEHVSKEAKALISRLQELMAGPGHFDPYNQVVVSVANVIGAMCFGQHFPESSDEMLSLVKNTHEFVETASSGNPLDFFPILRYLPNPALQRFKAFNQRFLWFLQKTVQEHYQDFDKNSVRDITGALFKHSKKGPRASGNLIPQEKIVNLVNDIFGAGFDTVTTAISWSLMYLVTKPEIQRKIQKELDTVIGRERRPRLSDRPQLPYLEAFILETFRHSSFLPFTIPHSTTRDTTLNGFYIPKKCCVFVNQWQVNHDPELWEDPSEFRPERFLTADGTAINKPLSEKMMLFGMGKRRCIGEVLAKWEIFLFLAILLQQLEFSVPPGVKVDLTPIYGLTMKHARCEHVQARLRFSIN
T1 sequence (P10635 whole entry): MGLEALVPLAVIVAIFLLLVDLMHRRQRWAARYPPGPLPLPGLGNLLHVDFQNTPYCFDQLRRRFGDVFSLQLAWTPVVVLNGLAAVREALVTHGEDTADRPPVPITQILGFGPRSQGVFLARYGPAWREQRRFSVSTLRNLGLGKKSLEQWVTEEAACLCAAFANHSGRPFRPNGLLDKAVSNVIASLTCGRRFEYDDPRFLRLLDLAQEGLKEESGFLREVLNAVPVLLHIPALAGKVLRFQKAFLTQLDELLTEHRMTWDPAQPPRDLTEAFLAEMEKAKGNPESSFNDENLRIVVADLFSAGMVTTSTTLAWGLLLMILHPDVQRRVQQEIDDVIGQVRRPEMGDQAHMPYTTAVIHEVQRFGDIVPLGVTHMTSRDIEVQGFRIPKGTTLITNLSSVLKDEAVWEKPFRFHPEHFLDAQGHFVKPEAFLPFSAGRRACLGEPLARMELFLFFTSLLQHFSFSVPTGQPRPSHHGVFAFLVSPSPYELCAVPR
T6 sequence (P10632 whole entry): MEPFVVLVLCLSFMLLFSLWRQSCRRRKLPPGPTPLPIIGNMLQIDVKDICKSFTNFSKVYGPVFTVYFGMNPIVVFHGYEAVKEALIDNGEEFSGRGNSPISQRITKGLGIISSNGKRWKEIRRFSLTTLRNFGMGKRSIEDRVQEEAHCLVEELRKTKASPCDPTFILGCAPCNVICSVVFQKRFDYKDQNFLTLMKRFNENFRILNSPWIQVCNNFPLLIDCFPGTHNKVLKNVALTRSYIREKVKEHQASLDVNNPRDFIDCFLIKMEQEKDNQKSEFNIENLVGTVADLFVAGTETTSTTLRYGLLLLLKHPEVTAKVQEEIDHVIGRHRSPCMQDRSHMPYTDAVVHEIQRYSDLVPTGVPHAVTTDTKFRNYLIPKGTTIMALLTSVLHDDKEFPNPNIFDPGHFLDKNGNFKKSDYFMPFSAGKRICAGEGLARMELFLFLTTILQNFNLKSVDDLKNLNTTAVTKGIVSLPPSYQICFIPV
T3 sequence (P11712 whole entry): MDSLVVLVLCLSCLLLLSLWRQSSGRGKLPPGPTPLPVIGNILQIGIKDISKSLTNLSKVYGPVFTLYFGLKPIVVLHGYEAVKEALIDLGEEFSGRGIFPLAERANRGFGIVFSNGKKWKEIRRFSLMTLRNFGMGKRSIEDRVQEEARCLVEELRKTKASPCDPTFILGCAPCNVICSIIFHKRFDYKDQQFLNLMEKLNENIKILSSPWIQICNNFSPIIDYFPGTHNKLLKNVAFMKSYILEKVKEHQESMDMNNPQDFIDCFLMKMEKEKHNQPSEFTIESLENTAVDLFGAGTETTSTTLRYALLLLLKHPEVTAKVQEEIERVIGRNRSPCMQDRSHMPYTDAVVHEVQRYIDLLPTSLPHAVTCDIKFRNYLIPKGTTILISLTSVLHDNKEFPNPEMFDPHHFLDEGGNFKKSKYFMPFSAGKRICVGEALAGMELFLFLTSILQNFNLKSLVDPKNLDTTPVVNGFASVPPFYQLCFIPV
T7 sequence (P20813 whole entry): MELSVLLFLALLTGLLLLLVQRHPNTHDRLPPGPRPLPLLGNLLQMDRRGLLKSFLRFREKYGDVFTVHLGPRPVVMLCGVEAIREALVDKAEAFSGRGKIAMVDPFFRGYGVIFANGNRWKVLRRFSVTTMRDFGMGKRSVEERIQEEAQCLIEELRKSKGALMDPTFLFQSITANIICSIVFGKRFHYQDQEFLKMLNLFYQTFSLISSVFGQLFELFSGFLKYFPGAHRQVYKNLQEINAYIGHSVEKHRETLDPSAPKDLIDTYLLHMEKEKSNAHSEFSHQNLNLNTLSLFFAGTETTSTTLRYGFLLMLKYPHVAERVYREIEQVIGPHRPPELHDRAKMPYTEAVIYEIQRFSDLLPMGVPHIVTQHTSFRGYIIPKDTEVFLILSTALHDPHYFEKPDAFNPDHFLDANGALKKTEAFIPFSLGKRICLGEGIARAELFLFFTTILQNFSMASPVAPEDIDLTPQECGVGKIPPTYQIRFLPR
T4 sequence (P33261 whole entry): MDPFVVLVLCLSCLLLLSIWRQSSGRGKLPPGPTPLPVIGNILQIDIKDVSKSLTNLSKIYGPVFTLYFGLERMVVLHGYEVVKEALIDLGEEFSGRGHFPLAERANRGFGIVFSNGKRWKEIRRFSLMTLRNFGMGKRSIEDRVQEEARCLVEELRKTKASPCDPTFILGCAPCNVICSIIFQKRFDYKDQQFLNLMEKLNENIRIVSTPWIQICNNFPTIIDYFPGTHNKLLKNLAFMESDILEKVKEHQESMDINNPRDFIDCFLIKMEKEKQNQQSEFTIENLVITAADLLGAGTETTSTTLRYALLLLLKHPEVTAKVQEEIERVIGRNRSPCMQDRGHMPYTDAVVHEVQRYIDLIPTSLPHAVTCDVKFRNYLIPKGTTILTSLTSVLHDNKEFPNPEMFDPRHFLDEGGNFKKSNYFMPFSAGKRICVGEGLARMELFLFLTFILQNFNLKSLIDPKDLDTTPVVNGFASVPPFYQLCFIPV

N#CCNC(=O)c1ccc(-c2ccnc(Nc3ccc(N4CCOCC4)cc3)n2)cc1 [Momelotinib]
CR (myelofibrosis [1]): 0 (0%) n (%)
Clinical Improvement (CI) (myelofibrosis [1]): 34 (57%) n (%)
PR (myelofibrosis [1]): 1 (1.7%) n (%)
patients with symptom improvement (myelofibrosis [1]): 57%
Anemia Response (myelofibrosis [1]): 42 (19; 45%) n (responses; %)
Anemia Response in Transfusion-Dependent Patients (myelofibrosis [1]): 32 (17; 53%) n (responses; %)
Spleen Response (myelofibrosis [1]): 57 (24; 42%) Evaluables (responses; %)
anemia response rate (myelofibrosis [1]): 45%
spleen volume reduction response rate (myelofibrosis [1]): 42%
First Dose Effect: hypotension (myelofibrosis [2]): 5%
First Dose Effect: transient dizziness (myelofibrosis [2]): 10%
Grade 3/4 thrombocytopenia (myelofibrosis [2]): 30%
median maintenance duration of anemia response (myelofibrosis [2]): 1,042 days
median spleen response duration (myelofibrosis [2]): 785 days
patients with anemia response (myelofibrosis [2]): 53%
patients with spleen response (IWG-MRT) (myelofibrosis [2]): 39%
Average Reduction in Spleen Volume at Month 6 (myelofibrosis [3]; [9]): -46%
Hemoglobin Elevation of 2 g/dL or Above (8 Weeks) (myelofibrosis [3]; [9]): 14%
IWG-MRT Anemia Response Rate (myelofibrosis [3]; [9]): 36%
Spleen Response (myelofibrosis [3]; [9]): 38%
Transfusion Independence Rate (12 Weeks) (myelofibrosis [3]; [9]): 57%
Average Reduction in Spleen Volume at Month 6 (myelofibrosis [3]; [10]): -36%
Hemoglobin Elevation of 2 g/dL or Above (8 Weeks) (myelofibrosis [3]; [10]): 11%
IWG-MRT Anemia Response Rate (myelofibrosis [3]; [10]): 48%
Spleen Response (myelofibrosis [3]; [10]): 32%
Transfusion Independence Rate (12 Weeks) (myelofibrosis [3]; [10]): 63%
Average Reduction in Spleen Volume at Month 6 (myelofibrosis [3]; [11]): -38%
Hemoglobin Elevation of 2 g/dL or Above (8 Weeks) (myelofibrosis [3]; [11]): 8%
IWG-MRT Anemia Response Rate (myelofibrosis [3]; [11]): 55%
Spleen Response (myelofibrosis [3]; [11]): 39%
Transfusion Independence Rate (12 Weeks) (myelofibrosis [3]; [11]): 75%
ALP Elevation (myelofibrosis [3]; [12]): 5%
ALT Elevation (myelofibrosis [3]; [12]): 9%
AST Elevation (myelofibrosis [3]; [12]): 9%
Amylase Elevation (myelofibrosis [3]; [12]): 7%
Anemia, drug-related AE (myelofibrosis [3]; [12]): 2%
Bilirubin Elevation (myelofibrosis [3]; [12]): 7%
Creatinine Elevation (myelofibrosis [3]; [12]): 5%
Diarrhea, drug-related AE (myelofibrosis [3]; [12]): 18%
Headache, drug-related AE (myelofibrosis [3]; [12]): 14%
Leukopenia, drug-related AE (myelofibrosis [3]; [12]): 2%
Lipase Elevation (myelofibrosis [3]; [12]): 8%
Nausea, drug-related AE (myelofibrosis [3]; [12]): 20%
Neutropenia, drug-related AE (myelofibrosis [3]; [12]): < 1%
Peripheral Neuropathy, drug-related AE (myelofibrosis [3]; [12]): 25%
Thrombocytopenia, Baseline Platelet > 150 x 109/L (n=97) (myelofibrosis [3]; [12]): 18%
Thrombocytopenia, drug-related AE (myelofibrosis [3]; [12]): 14%
Vertigo, drug-related AE (myelofibrosis [3]; [12]): 22%
ALP Elevation (myelofibrosis [3]; [13]): 1%
ALT Elevation (myelofibrosis [3]; [13]): 3%
AST Elevation (myelofibrosis [3]; [13]): 2%
Amylase Elevation (myelofibrosis [3]; [13]): 2%
Anemia, drug-related AE (myelofibrosis [3]; [13]): 2%
Bilirubin Elevation (myelofibrosis [3]; [13]): 2%
Creatinine Elevation (myelofibrosis [3]; [13]): 3%
Diarrhea, drug-related AE (myelofibrosis [3]; [13]): 4%
Leukopenia, drug-related AE (myelofibrosis [3]; [13]): < 1%
Lipase Elevation (myelofibrosis [3]; [13]): < 1%
Nausea, drug-related AE (myelofibrosis [3]; [13]): < 1%
Neutropenia, drug-related AE (myelofibrosis [3]; [13]): 2%
Peripheral Neuropathy, drug-related AE (myelofibrosis [3]; [13]): 2%
Thrombocytopenia, Baseline Platelet > 150 x 109/L (n=97) (myelofibrosis [3]; [13]): 1%
Thrombocytopenia, drug-related AE (myelofibrosis [3]; [13]): 8%
Vertigo, drug-related AE (myelofibrosis [3]; [13]): 1%
ALP Elevation (myelofibrosis [3]; [14]): 1%
ALT Elevation (myelofibrosis [3]; [14]): 2%
AST Elevation (myelofibrosis [3]; [14]): 1%
Anemia, drug-related AE (myelofibrosis [3]; [14]): 2%
Headache, drug-related AE (myelofibrosis [3]; [14]): 1%
Lipase Elevation (myelofibrosis [3]; [14]): 4%
Neutropenia, drug-related AE (myelofibrosis [3]; [14]): 1%
Thrombocytopenia, Baseline Platelet > 150 x 109/L (n=97) (myelofibrosis [3]; [14]): 9%
Thrombocytopenia, drug-related AE (myelofibrosis [3]; [14]): 17%
Leukopenia, drug-related AE (myelofibrosis [3]; [15]): < 1%
Neutropenia, drug-related AE (myelofibrosis [3]; [15]): 2%
Thrombocytopenia, Baseline Platelet > 150 x 109/L (n=97) (myelofibrosis [3]; [15]): 1%
Thrombocytopenia, drug-related AE (myelofibrosis [3]; [15]): 7%
Hemoglobin Elevation of 2 g/dL or Above (8 Weeks) (myelofibrosis [3]; [16]): 13%
IWG-MRT Anemia Response Rate (myelofibrosis [3]; [16]): 48%
Transfusion Independence Rate (12 Weeks) (myelofibrosis [3]; [16]): 68%
Average Reduction in Spleen Volume at Month 6 (myelofibrosis [3]; [17]): -38%
Spleen Response (myelofibrosis [3]; [17]): 37%
transfusion dependent patients with non-transfusion dependent duration of at least 12 weeks (myelofibrosis [3]; n=33, ref Momelotinib Phase I/II): 70%
patients with improvement of anemia (myelofibrosis [3]; ref Momelotinib Phase I/II): 59%
symptom controlled: bone pain (myelofibrosis [3]; ref Momelotinib Phase I/II): 33%
symptom controlled: cough (myelofibrosis [3]; ref Momelotinib Phase I/II): 29%
symptom controlled: fever (myelofibrosis [3]; ref Momelotinib Phase I/II): 100%
symptom controlled: night sweat (myelofibrosis [3]; ref Momelotinib Phase I/II): 57%
symptom controlled: pruritus (myelofibrosis [3]; ref Momelotinib Phase I/II): 52%

N#CC[C@H](C1CCCC1)n1cc(-c2ncnc3[nH]ccc23)cn1 [Ruxolitinib]
patients with ≥35% reduction in spleen volume (myelofibrosis [4]): 28%
patients with >50% reduction in spleen volume (myelofibrosis [5]): 44%
CR (myelofibrosis [1]): 0 (0%) n (%)
Clinical Improvement (CI) (myelofibrosis [1]): 9 (18%) n (%)
PR (myelofibrosis [1]): 0 (0%) n (%)
patients with symptom improvement (myelofibrosis [1]): 18%
Anemia Response (myelofibrosis [1]): 19 (2; 11%) n (responses; %)
Anemia Response in Transfusion-Dependent Patients (myelofibrosis [1]): 12 (2; 17%) n (responses; %)
Spleen Response (myelofibrosis [1]): 46 (7; 15%) Evaluables (responses; %)
anemia response rate (myelofibrosis [1]): 11%
spleen volume reduction response rate (myelofibrosis [1]): 15%
patients with ≥35% reduction in spleen volume (myelofibrosis [6]): 41.9%
Thrombus, patients (polycythemia vera; Ruxolitinib group, ref RESPONSE study): 1
Herpes zoster infection (polycythemia vera; in vivo): 6%
herpes zoster incidence (polycythemia vera; in vivo): 4.7%

N#CCNC(=O)c1ccc(-c2ccnc(Nc3ccc(N4CCOCC4)cc3)n2)cc1 [ZG0128, Jaktinib Dihydrochloride Monohydrate]
IC50 (CYP2D6): > 100 µM
IC50 (CYP1A2): > 100 µM
IC50 (CYP2C9): > 100 µM
IC50 [7]: 0.18 µM
IC50 (CYP2C19): > 100 µM
IC50 (CYP3A4; microsomes): > 100 µM
IC50 (CYP3A4; midazolam 1'-hydroxylation, read-out: IC50): > 100 µM
IC50 (CYP2C8): > 100 µM
IC50 (CYP2B6): > 100 µM
IC50 ([8]; J53Z1 and HCD-57 with JAK2V617F, MPLW515L, KITD816V, FLT3-ITD, FLT3D835H, FLT3D835Y, read-out: IC50, growth inhibition, range over cell lines): 0.31 to 0.71 µM
IC50 ([8]; transfected JAK2V617F cell lines, read-out: IC50): 0.61 µM
